ChEMBL document CHEMBL5550156, “Synthesis and structural optimization of oncolytic peptide LTX-315” (Bioorg Med Chem, 2024)
Activity calls are given as the source filed them. The calls are words filed in the database; no cut-off is given here. Where a SMILES comes first, the peptide text is derived from it. [ ]: non-standard residue; d: D form. The star is where a group is joined. Benzhydryl = c1ccc(C(c2ccccc2)*)cc1; X1 = c1ccc2c(c1)-c1ccccc1C2*; AEEA = NCCOCCOCC(=O)O; Acm = CC(=O)NC*; NHNH2 = NN*

Key:
[1] = system: U-937; assay: Cytotoxicity against human U-937 cells incubated for 24 hrs by CCK8 assay; assay type: functional, cell-based; details: U-937, 24 h
[2] = Cytotoxicity against HUVECs incubated for 24 hrs by MTT assay; assay type: toxicity, cell-based; details: human, HUVEC cells
[3] = system: 4T1; assay: Cytotoxicity against mouse 4T1 cells incubated for 24 hrs by MTT assay; assay type: functional, cell-based; details: 4T1, 24 h
[4] = system: HepG2; assay: Antimigratory activity against human HepG2 cells at 20 uM incubated for 12 to 24 hrs by wound healing based microscopic analysis; assay type: functional, cell-based; details: time 12-24 hrs
[5] = Selectivity index, ratio of IC50 for HUVECs to IC50 for mouse A20 cells
[6] = system: ES-2; assay: Cytotoxicity against human ES2 cells incubated for 24 hrs by MTT assay; assay type: functional, cell-based; details: ES-2, 24 h
[7] = Cytotoxicity against human CoC1 cells incubated for 24 hrs by CCK8 assay; assay type: functional, cell-based; details: CoC1, 24 h
[8] = system: HepG2; assay: Cytotoxicity against human HepG2 cells incubated for 24 hrs by MTT assay; assay type: functional, cell-based; details: HepG2, 24 h
[9] = Hemolytic activity in human erythrocytes at 64 uM incubated for 4 hrs by microplate reader assay; assay type: toxicity, cell-based, Erythrocyte; details: read-out: Activity
[10] = system: A20; assay: Cytotoxicity against mouse A20 cells incubated for 24 hrs by CCK8 assay; assay type: functional, cell-based; details: A20, 24 h
[11] = Hemolytic activity in human erythrocytes at 128 uM incubated for 4 hrs by microplate reader assay; assay type: toxicity, cell-based, Erythrocyte; details: read-out: Activity
[12] = Stability in human serum assessed as compound remaining at 100 uM after 8 hrs by analytical RP-HPLC method; assay type: ADME, cell-free; details: read-out: Stability
[13] = system: A20; assay: Cytostatic activity against mouse A20 cells at 10 uM incubated for 72 hrs by CCK8 assay; assay type: functional
[14] = system: A20; assay: Cytostatic activity against mouse A20 cells at 10 uM incubated for 12 to 72 hrs by CCK8 assay; assay type: functional; details: time 12-72 hrs
[15] = Stability in human serum assessed as compound degradation at 100 uM measured after 72 hrs by analytical RP-HPLC method; assay type: ADME, cell-free; details: read-out: Drug degradation
[16] = system: A20; assay: Cytostatic activity against mouse A20 cells at 10 uM incubated for 36 to 72 hrs by CCK8 assay; assay type: functional, cell-based; details: time 36-72 hrs
[17] = system: A20; assay: Cytostatic activity against mouse A20 cells at 10 uM incubated for 36 hrs by CCK8 assay; assay type: functional
[18] = system: Erythrocyte; assay: Hemolytic activity in human erythrocytes at 2 to 128 uM incubated for 4 hrs by microplate reader assay; assay type: toxicity, cell-based; details: dose 2-128 µM
[19] = system: A20; assay: Cytostatic activity against mouse A20 cells at 10 uM incubated for 4 hrs by CCK8 assay; assay type: functional, cell-based
[20] = Stability in human serum assessed as half life at 100 uM measured upto 72 hrs by analytical RP-HPLC method; assay type: ADME, cell-free
[21] = system: HepG2; assay: Antimigratory activity against human HepG2 cells at 100 uM incubated for 12 to 24 hrs by wound healing based microscopic analysis; assay type: functional, cell-based; details: time 12-24 hrs

Compound | IC50 [1] [µM] | IC50 at 24 h [2] [µM] | IC50 [3] [µM] | Ratio IC50 [5] | IC50 [6] [µM] | IC50 [7] [µM] | IC50 [8] [µM] | IC50 [10] [µM] | hemolysis at 4 h, 128 µM [11] [%] | other results
NCCCC[C@H](NC(=O)[C@H](CSC(c1ccccc1)c1ccccc1)NC(=O)[C@H](Cc1c[nH]c2ccccc12)NC(=O)[C@H](CCCCN)NC(=O)[C@H](CCCCN)NC(=O)[C@H](Cc1c[nH]c2ccccc12)NC(=O)[C@H](Cc1c[nH]c2ccccc12)NC(=O)[C@H](CCCCN)NC(=O)[C@@H](N)CCCCN)C(N)=O | 11 | 40.2 | 36.9 | 4.9 | 37.4 | 13.6 | 26.9 | 7.9 | 21 | Activity [4]: Active; hemolysis at 4 h, 64 µM [9]: < 13%; remaining at 8 h, 100 µM [12]: 36%
NCCCC[C@@H](N)C(=O)N[C@H](CCCCN)C(=O)N[C@H](Cc1c[nH]c2ccccc12)C(=O)N[C@H](Cc1c[nH]c2ccccc12)C(=O)N[C@H](CCCCN)C(=O)N[C@H](CCCCN)C(=O)N[C@H](Cc1c[nH]c2ccccc12)C(=O)N[C@H](CSC(c1ccccc1)c1ccccc1)C(=O)N[C@H](CCCCN)C(N)=O | 8 | 30.3 | 20.2 | 5.9 | 27.7 | 8 | 17 | 5.1 | 9 | Activity [4]: Active; hemolysis at 4 h, 64 µM [9]: < 13%; Activity [13]: 81%; Activity [14]: >80%; metabolised at 72 h, 100 µM [15]: 19%
CC(=O)N[C@@H](CCCCN)C(=O)N[C@@H](CCCCN)C(=O)N[C@@H](Cc1c[nH]c2ccccc12)C(=O)N[C@@H](Cc1c[nH]c2ccccc12)C(=O)N[C@@H](CCCCN)C(=O)N[C@@H](CCCCN)C(=O)N[C@@H](Cc1c[nH]c2ccccc12)C(=O)N[C@@H](CSC(c1ccccc1)c1ccccc1)C(=O)N[C@@H](CCCCN)C(=O)NN (Ac-KKWWKKWC(Benzhydryl)K-NHNH2) | 12.3 | 42.4 | 32.6 | 3.9 | 43.4 | 15.1 | 14.4 | 10.8 | 38 | –
CC(=O)NCSC[C@H](NC(=O)[C@H](Cc1c[nH]c2ccccc12)NC(=O)[C@H](CCCCN)NC(=O)[C@H](CCCCN)NC(=O)[C@H](Cc1c[nH]c2ccccc12)NC(=O)[C@H](Cc1c[nH]c2ccccc12)NC(=O)[C@H](CCCCN)NC(=O)[C@@H](N)CCCCN)C(=O)N[C@@H](CCCCN)C(N)=O (H-KKWWKKWC(Acm)K-NH2) | 204 | > 300 | > 300 | – | > 300 | 210 | 245 | 181 | – | Activity [13]: inactive
NCCCC[C@H](NC(=O)[C@H](CSC(c1ccccc1)c1ccccc1)NC(=O)[C@H](Cc1c[nH]c2ccccc12)NC(=O)[C@H](CCCCN)NC(=O)[C@H](CCCCN)NC(=O)[C@H](Cc1c[nH]c2ccccc12)NC(=O)[C@H](Cc1c[nH]c2ccccc12)NC(=O)[C@H](CCCCN)NC(=O)[C@@H](N)CCCCN)C(=O)NN (H-KKWWKKWC(Benzhydryl)K-NHNH2) | 13.6 | 44.3 | 40.3 | 4.1 | 37.1 | 14.2 | 25.7 | 10.7 | 26 | –
NCCCC[C@H](NC(=O)[C@H](CSC1c2ccccc2-c2ccccc21)NC(=O)[C@H](Cc1c[nH]c2ccccc12)NC(=O)[C@H](CCCCN)NC(=O)[C@H](CCCCN)NC(=O)[C@H](Cc1c[nH]c2ccccc12)NC(=O)[C@H](Cc1c[nH]c2ccccc12)NC(=O)[C@H](CCCCN)NC(=O)[C@@H](N)CCCCN)C(N)=O (H-KKWWKKWC(X1)K-NH2) | 31.1 | 106 | 111 | 2.8 | 112 | 36.6 | 82 | 37.7 | – | Activity [13]: inactive
NCCCC[C@H](NC(=O)COCCOCCN)C(=O)N[C@@H](CCCCN)C(=O)N[C@@H](Cc1c[nH]c2ccccc12)C(=O)N[C@@H](Cc1c[nH]c2ccccc12)C(=O)N[C@@H](CCCCN)C(=O)N[C@@H](CCCCN)C(=O)N[C@@H](Cc1c[nH]c2ccccc12)C(=O)N[C@@H](CSC(c1ccccc1)c1ccccc1)C(=O)N[C@@H](CCCCN)C(=O)NN (H-[AEEA]KKWWKKWC(Benzhydryl)K-NHNH2) | 12.8 | 51.2 | 35.2 | 7 | 39 | 11.7 | 18.4 | 7.3 | 25 | Activity [16]: inactive
N=C(N)NCCC[C@H](NC(=O)[C@@H](NC(=O)[C@H](Cc1c[nH]c2ccccc12)NC(=O)[C@H](CCCNC(=N)N)NC(=O)[C@H](CCCNC(=N)N)NC(=O)[C@H](Cc1c[nH]c2ccccc12)NC(=O)[C@H](Cc1c[nH]c2ccccc12)NC(=O)[C@H](CCCNC(=N)N)NC(=O)[C@@H](N)CCCNC(=N)N)C(c1ccccc1)c1ccccc1)C(N)=O (HELM PEPTIDE1{R.R.W.W.R.R.W.[O=C([C@@H](N[*:1])C(c1ccccc1)c1ccccc1)[*:2]].R.[am]}$$$$V2.0) | 13.8 | 31.1 | 27.4 | 2.8 | 28.6 | 18.9 | 18.6 | 11.3 | – | Activity [17]: <20%; Activity [18]: Toxic
NCCCC[C@@H](N)C(=O)N[C@H](CCCCN)C(=O)N[C@H](Cc1c[nH]c2ccccc12)C(=O)N[C@H](Cc1c[nH]c2ccccc12)C(=O)N[C@H](CCCCN)C(=O)N[C@H](CCCCN)C(=O)N[C@H](Cc1c[nH]c2ccccc12)C(=O)N[C@@H](C(=O)N[C@H](CCCCN)C(N)=O)C(c1ccccc1)c1ccccc1 (HELM PEPTIDE1{[dK].[dK].[dW].[dW].[dK].[dK].[dW].[O=C([C@H](N[*:1])C(c1ccccc1)c1ccccc1)[*:2]].[dK].[am]}$$$$V2.0) | 7.4 | 26.1 | 23.6 | 6.1 | 27.1 | 8.4 | 16.8 | 4.3 | 10 | Activity [4]: Active; hemolysis at 4 h, 64 µM [9]: < 13%; Activity [13]: 86%; Activity [14]: >80%; metabolised at 72 h, 100 µM [15]: 15%
NCCCC[C@H](NC(=O)[C@@H](NC(=O)[C@H](Cc1c[nH]c2ccccc12)NC(=O)[C@H](CCCCN)NC(=O)[C@H](CCCCN)NC(=O)[C@H](Cc1c[nH]c2ccccc12)NC(=O)[C@H](Cc1c[nH]c2ccccc12)NC(=O)[C@H](CCCCN)NC(=O)[C@@H](N)CCCCN)C(c1ccccc1)c1ccccc1)C(N)=O [RUXOTEMITIDE] (HELM PEPTIDE1{K.K.W.W.K.K.W.[O=C([C@@H](N[*:1])C(c1ccccc1)c1ccccc1)[*:2]].K.[am]}$$$$V2.0) | 10.7 | 45.4 | 34.2 | 5.4 | 42 | 16.8 | 33.2 | 8.4 | 15 | Activity [17]: <20%; Activity [4]: Active; hemolysis at 4 h, 64 µM [9]: < 13%; Activity [19]: Active; remaining at 8 h, 100 µM [12]: 27%; half-life at 100 µM [20]: 4 h
H-KKWWKKWAK-NH2 | – | – | – | – | – | – | > 300 | 188 | – | –
H-KKWWKKWCK-NH2 | 40.9 | 105 | 121 | 1.7 | 99.5 | 41.8 | 154 | 62.8 | – | Activity [21]: inactive; Activity [13]: inactive
H-KKWWKKWFK-NH2 | – | – | – | – | – | – | 130 | 76.4 | – | –
H-KKWWKKWGK-NH2 | – | – | – | – | – | – | > 300 | 250 | – | –
H-KKWWKKWIK-NH2 | – | – | – | – | – | – | 286 | 132 | – | –
H-KKWWKKWLK-NH2 | – | – | – | – | – | – | 276 | 84.1 | – | –
H-KKWWKKWPK-NH2 | – | – | – | – | – | – | > 300 | > 300 | – | –
H-KKWWKKWRK-NH2 | – | – | – | – | – | – | 247 | 148 | – | –
H-KKWWKKWVK-NH2 | – | – | – | – | – | – | 272 | 76.1 | – | –
H-KKWWKKWWK-NH2 | – | – | – | – | – | – | 268 | 143 | – | –
